Patent publication US9499486B2, “Kinase inhibitor” (RESPIVERT LIMITED, priority 2014, dated 2016)

Experiments:
[1] = target: c-Src (Homo sapiens (Human), UniProt P12931); assay: c-Src enzyme inhibition, Z-LYTE FRET; format: biochemical
Experimental: The relevant enzyme (3000 ng/mL or 2000 ng/mL respectively, 2.5 μL) is incubated with the test compound (either 1 μg/mL, 0.1 μg/mL, 0.01 μg/mL, or 0.001 μg/mL, 2.5 μL each) for 2 hr at RT. The FRET peptides (8 μM, 2.5 μL), and appropriate ATP solutions (2.5 μL, 800 μM for c-Src, and 60 μM ATP for Syk) are then added to the enzymes/compound mixtures and the mixture incubated for 1 hr. Development reagent (protease, 5 μL) is added for 1 hr prior to detection in a fluorescence microplate reader (Varioskan® Flash, ThermoFisher Scientific).
(§1) In all cases, the site-specific protease cleaves non-phosphorylated peptide only and eliminates the FRET signal. Phosphorylation levels of each reaction are calculated using the ratio of coumarin emission (donor) over fluorescein emission (acceptor), for which high ratios indicate high phosphorylation and low ratios indicate low phosphorylation levels.

[2] = system: PBMCs; assay: Cell mitosis assay (assay g); format: cell-based, human
Experimental: Peripheral blood mononucleocytes (PBMCs) from healthy subjects are separated from whole blood (Quintiles, London, UK) using a density gradient (Histopaque-1077, Sigma-Aldrich, Poole, UK). The PBMCs (3 million cells per sample) are subsequently treated with 2% PHA (phytohaemagglutinin, Sigma-Aldrich, Poole, UK) for 48 hr, followed by a 20 hr exposure to varying concentrations of test compounds. At 2 hr before collection, PBMCs are treated with demecolcine (0.1 μg/mL; Invitrogen, Paisley, UK) to arrest cells in metaphase. To observe mitotic cells, PBMCs are permeabilised and fixed by adding Intraprep (50 μL; Beckman Coulter, France), and stained with anti-phospho-histone 3 (0.26 ng/L; #9701; Cell Signalling, Danvers, Mass.) and propidium iodide (1 mg/mL; Sigma-Aldrich, Poole, UK) as previously described (Muehlbauer P. A. and Schuler M. J., Mutation Research, 2003, 537:117-130). Fluorescence is observed using an ATTUNE flow cytometer (Invitrogen, Paisley, UK), gating for lymphocytes.

[3] = target: hERG (Homo sapiens (Human), UniProt Q12809); assay: hERG inhibition, IonWorks patch clamp electrophysiology; format: cell-based; conditions: human; Top Concentration 3 μM
hERG, sequence (Q12809 whole entry): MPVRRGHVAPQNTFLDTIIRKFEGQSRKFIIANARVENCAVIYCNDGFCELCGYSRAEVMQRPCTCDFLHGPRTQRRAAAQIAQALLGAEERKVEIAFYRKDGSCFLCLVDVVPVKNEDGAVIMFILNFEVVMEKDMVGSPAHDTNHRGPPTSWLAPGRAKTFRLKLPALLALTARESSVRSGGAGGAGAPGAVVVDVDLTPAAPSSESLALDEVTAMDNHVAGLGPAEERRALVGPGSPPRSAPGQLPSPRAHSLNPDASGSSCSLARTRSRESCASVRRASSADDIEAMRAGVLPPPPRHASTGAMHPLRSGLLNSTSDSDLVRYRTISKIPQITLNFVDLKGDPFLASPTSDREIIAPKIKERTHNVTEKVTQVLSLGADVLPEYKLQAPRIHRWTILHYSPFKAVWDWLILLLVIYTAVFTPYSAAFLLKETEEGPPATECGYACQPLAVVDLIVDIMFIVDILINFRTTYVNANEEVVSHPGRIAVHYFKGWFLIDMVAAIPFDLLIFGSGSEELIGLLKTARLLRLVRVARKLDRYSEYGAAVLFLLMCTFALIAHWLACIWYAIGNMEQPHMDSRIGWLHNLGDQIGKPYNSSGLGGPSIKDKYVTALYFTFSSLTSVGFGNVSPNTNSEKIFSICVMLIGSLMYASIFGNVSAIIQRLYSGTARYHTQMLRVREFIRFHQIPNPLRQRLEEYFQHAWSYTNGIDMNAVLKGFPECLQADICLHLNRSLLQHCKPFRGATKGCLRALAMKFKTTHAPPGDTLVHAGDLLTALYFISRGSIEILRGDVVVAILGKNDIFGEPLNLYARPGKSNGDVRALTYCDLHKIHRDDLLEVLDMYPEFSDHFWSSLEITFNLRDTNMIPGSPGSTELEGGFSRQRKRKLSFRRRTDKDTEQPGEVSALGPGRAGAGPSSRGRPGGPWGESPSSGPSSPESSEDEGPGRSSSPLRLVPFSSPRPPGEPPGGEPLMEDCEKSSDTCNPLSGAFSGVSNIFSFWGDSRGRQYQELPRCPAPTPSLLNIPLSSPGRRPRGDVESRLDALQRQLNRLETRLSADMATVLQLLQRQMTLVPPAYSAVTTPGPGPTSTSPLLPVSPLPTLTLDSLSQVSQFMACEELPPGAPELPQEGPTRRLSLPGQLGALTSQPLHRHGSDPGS
Experimental: (§2) The compound of the invention was tested for inhibition of the human ether a go-go (hERG) channel using IonWorks™ patch clamp electrophysiology at Essen Bioscience (Welwyn Garden City, England).

[4] = target: human ether a go-go (hERG) channel (Homo sapiens (Human), UniProt Q12809); assay: as above; format: cell-based; conditions: IonWorks patch clamp
human ether a go-go (hERG) channel, sequence (Q12809 whole entry): as above
Experimental: as §2

[5] = target: Syk (Homo sapiens (Human), UniProt P43405); assay: KINOMEscan dissociation constant, Syk; format: binding
Description: (§3) These assays may be conducted by DiscoverX (formerly Ambit; San Diego, Calif.).

[6] = target: p38 MAPKα (Homo sapiens (Human), UniProt Q16539); assay: KINOMEscan dissociation constant, p38 MAPKα; format: binding
p38 MAPKα, sequence (Q16539 whole entry, looked up): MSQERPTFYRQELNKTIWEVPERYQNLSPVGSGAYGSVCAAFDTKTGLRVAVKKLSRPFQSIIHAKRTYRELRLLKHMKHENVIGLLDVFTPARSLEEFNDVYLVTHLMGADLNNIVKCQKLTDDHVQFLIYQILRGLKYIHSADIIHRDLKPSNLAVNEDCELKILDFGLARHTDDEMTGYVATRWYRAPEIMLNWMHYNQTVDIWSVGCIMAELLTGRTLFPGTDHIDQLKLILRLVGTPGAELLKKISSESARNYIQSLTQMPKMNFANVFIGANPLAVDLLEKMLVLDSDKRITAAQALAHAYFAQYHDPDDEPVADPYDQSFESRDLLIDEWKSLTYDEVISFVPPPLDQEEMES
Description: as §3

[7] = target: B-Raf (Homo sapiens (Human), UniProt P15056); assay: KINOMEscan binding of B-Raf to standard ligand
B-Raf, sequence (P15056 whole entry): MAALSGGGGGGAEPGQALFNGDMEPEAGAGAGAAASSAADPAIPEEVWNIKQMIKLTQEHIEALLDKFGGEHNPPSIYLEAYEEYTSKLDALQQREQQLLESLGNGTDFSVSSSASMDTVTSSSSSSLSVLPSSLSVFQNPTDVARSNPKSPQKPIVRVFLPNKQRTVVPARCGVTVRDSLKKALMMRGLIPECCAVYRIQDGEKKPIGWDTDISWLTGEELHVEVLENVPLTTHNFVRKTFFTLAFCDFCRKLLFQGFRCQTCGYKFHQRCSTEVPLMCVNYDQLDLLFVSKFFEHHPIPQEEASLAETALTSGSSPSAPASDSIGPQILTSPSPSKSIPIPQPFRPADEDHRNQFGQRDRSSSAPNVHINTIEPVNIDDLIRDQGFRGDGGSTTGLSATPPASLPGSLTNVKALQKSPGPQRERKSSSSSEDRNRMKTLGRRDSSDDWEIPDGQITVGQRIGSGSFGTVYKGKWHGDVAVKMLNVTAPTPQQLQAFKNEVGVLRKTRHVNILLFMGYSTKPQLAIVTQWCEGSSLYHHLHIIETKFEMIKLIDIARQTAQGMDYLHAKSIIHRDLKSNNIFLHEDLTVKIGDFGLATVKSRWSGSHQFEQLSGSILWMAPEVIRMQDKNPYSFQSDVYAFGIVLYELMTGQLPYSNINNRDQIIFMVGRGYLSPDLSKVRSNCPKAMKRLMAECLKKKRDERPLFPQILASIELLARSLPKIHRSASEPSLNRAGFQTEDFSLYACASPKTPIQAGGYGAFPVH
Description: as §3

[8] = Systemic pharmacokinetics and total colon tissue distribution after single oral administration; format: in vivo, mouse; conditions: mice, single oral administration
Experimental: Studies were conducted by Sai Life Sciences (Hinjewadi, Pune, India) to investigate the systemic pharmacokinetics and total colon tissue distribution of the compound of the invention. In particular, pharmacokinetic studies were carried out in male C57BL/6 mice following a single oral administration of the compound.

[9] = system: Salmonella typhimurium, strains TA1535, TA1537, TA98 and TA100 and Escherichia coli, WP2 uvrA; assay: Bacterial reverse mutation screen (plate incorporation)
[10] = target: GSK3α (Homo sapiens (Human), UniProt P49840); assay: GSK3α enzyme inhibition (Method 2), Z-LYTE FRET; format: biochemical
GSK3α, sequence (P49840 whole entry): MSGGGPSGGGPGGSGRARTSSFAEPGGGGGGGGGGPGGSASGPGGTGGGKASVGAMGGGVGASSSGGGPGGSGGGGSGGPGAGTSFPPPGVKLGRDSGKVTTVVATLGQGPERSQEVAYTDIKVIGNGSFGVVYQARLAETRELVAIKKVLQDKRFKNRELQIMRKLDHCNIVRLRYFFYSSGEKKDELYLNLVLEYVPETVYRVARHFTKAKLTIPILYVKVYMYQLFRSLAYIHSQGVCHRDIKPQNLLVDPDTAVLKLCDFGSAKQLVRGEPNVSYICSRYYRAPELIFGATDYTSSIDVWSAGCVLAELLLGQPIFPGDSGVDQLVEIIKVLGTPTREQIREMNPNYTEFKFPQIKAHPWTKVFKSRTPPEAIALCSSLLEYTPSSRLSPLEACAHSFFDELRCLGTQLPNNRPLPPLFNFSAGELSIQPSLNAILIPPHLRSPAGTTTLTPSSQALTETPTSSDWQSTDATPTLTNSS
Experimental: The enzyme inhibitory activities of the compound disclosed herein are determined by FRET using synthetic peptides labelled with both donor and acceptor fluorophores (Z-LYTE, Invitrogen Ltd., Paisley, UK).
The inhibitory activities of the compound of the invention against the GSK 3α enzyme isoform (Invitrogen), are evaluated by determining the level of activation/phosphorylation of the target peptide. The GSK3-α protein (500 ng/mL, 2.5 μL) is mixed with the test compound (2.5 μL at either 4 μg/mL, 0.4 μg/mL, 0.04 μg/mL, or 0.004 μg/mL) for 2 hr at RT. The FRET peptide (8 μM, 2.5 μL), which is a phosphorylation target for GSK3α, and ATP (40 μM, 2.5 μL) are then added to the enzyme/compound mixture and the resulting mixture incubated for 1 hr. Development reagent (protease, 5 μL) is added for 1 hr prior to detection in a fluorescence microplate reader (Varioskan® Flash, ThermoFisher Scientific).
as §1, with “levels. […]” for “levels.”

[11] = target: Lck (Homo sapiens (Human), UniProt P06239); assay: KINOMEscan dissociation constant, Lck; format: binding
Lck, sequence (P06239 whole entry): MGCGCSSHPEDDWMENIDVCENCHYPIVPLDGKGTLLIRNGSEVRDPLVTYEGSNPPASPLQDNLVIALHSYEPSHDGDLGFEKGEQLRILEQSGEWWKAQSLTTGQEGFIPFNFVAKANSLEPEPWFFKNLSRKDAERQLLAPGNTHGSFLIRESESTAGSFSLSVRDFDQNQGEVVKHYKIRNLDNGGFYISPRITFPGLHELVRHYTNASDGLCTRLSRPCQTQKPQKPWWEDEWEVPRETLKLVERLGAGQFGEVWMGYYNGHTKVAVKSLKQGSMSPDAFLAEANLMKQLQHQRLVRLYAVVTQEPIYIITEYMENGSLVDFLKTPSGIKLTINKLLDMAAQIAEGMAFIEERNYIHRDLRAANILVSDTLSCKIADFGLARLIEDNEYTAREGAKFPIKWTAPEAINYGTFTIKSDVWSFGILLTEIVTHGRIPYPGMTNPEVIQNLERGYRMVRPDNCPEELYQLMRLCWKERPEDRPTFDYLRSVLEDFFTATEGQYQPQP
Description: as §3

[12] = Stability of pharmaceutical formulations (1 mg/mL solutions); format: physicochemical; conditions: 5° C.
Experimental: The samples were sonicated to achieve clear solutions having the following properties: Osmolality (mOsm/kg): 310 (Na), 314 (HCl); pH: 7.00 (Na), 7.05 (HCl). 0.5 mL of the stock solutions were diluted to 1 mL with 20% DMSO in water & injected for purity analysis by HPLC. The remaining stock solutions were then split into aliquots of 0.5 mL in HPLC vials, and stored at various conditions in duplicate. Samples were stored at 5 and 25° C., before being analysed by HPLC at 1, 2 and 4 weeks. Separate samples were stored at 40° C. and analysed at 4 weeks.

c-Src, sequence (P12931 whole entry, looked up): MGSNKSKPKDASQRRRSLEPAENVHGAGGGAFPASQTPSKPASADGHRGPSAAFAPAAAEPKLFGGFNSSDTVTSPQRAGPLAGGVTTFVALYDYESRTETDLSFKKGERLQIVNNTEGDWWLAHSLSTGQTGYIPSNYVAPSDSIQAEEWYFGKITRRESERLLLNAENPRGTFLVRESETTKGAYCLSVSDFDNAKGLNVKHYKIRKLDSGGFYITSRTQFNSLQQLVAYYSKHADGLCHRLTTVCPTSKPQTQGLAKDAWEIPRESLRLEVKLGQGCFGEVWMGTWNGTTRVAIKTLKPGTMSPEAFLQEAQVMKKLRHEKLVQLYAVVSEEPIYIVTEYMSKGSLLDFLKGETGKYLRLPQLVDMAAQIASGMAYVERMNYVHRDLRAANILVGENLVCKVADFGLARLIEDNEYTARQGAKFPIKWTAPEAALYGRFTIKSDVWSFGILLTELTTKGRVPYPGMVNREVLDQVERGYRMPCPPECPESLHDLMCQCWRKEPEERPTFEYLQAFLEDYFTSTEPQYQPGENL

Structure (SMILES): COc1cc(Nc2cc(Oc3ccc(NC(=O)Nc4cc(C(C)(C)C)cc(NS(C)(=O)=O)c4OC)c4ccccc34)ccn2)ccc1C(=O)O [Example 1, 4-((4-((4-(3-(5-(tert-Butyl)-2-methoxy-3-(methylsulfonamido)phenyl)ureido)naphthalen-1-yl)oxy)pyridin-2-yl)amino)-2-methoxybenzoic acid]
- IC50 [1]: 14 nM
- impact on cell division (mitosis) in PBMCs compared with Reference Compound [2]: markedly less active than the Reference Compound
- inhibition at 3 µM [3]: -4%
- IC50 [4]: > 3.3 µM
- Kd [5]: 7.1 nM
- Kd [6]: 2.8 nM
- effect on the binding of B-Raf to its standard ligand [7]: did not have any significant effect
- systemic plasma or blood exposures [8]: very low or negligible
- mutagenic effects ([9]; 15-1500 μg/plate, all strains, presence and absence of S-9 mix): absence of any mutagenic effects
- toxicity of the test item to the bacteria ([9]; 500 and 1500 μg/plate in TA98, 1500 μg/plate in TA1535, presence of S-9 mix): reduction in the mean colony count
- limit of solubility in mutation test ([9]; all strains, presence and absence of S-9 mix, plate incorporation): 1500 μg/plate
- increases in revertant numbers ([9]; any strain, any dose level, presence or absence of S-9 mix): no dose-related or statistically significant increases
- IC50 [10]: 115 nM
- Kd [11]: 4.2 nM
- stability in solution [12]: stable
